# Measurements as given in publication PMC10544810 (Food & Function, 2023).
# Assays:
# LC-MS [1] = format: in vivo, human; conditions: for concentrations detected in plasma: individual volunteers, ESI Fig. S4; for plasma concentration (mean ± SD): fasted baseline plasma, 90 volunteers
# LC-MS [2] = format: in vivo, human; conditions: given as x : 1; plasma versus CSF concentrations
# [3] = cited from earlier work
Compound,plasma : CSF ratio (LC-MS [2]),plasma concentration (mean ± SD) (LC-MS [1]) [µM],other results
Oc1cc(O)c2c(c1)O[C@H](c1ccc(O)c(O)c1)[C@H](O)C2 [(−)-Epicatechin],24,,concentrations detected in plasma (LC-MS [1]): below 1 μM
"CCOC(=O)c1cc(O)c(O)c(O)c1 [3,4,5-trihydroxybenzene ethyl ester]",,0.0053 ± 0.0041,
"O=c1ccc2ccc(O)c(O)c2o1 [7,8-Dihydroxycoumarin]",5,,concentrations detected in plasma (LC-MS [1]): below 1 μM
Cn1c(=O)[nH]c(=O)c2[nH]cnc21 [3-Methylxanthine],,5.3 ± 3.8,
"Cn1c(=O)c2[nH]cnc2n(C)c1=O [1,3-Dimethylxanthine, reference compound]",620,,
O=C(O)CNC(=O)c1ccccc1 [hippuric acid],,387 ± 243,
"Cn1c(=O)c2c(ncn2C)n(C)c1=O [1,3,7-Trimethylxanthine, reference compound]",,179 ± 118,
O=C(O)c1cccc(O)c1 [3-Hydroxybenzoic acid],,,CSF concentration reported by a previous study [3]: 58.5 nM
